# Reference: ChEMBL document CHEMBL1201862, “PubChem BioAssay data set” (2004)
# The source made the active and inactive calls.
# Legend:
# [1] = inhibitors of intracellular T. cruzi replication, confirmation, NIH3T3 host cells, beta-gal luminescence (AID 2044); format: functional, cell-based;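 also: intracellular parasites grown in NIH/3T3 mouse fibroblasts as host cells; luminescent beta-galactosidase reporter signal from transgenic T. cruzi replicating inside host cells; inhibitors lower the luminescence signal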
# [2] = cytotoxicity toward NIH3T3 fibroblasts, dose response, counter-screen, cell-based, ATP luminescence, mouse fibroblasts (AID 2010); format: functional;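 also: cells exposed to compound for about 90 hours before reading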
# [3] = cells
# [4] = biological target: T1, Mannose-6-phosphate isomerase (Homo sapiens, UniProt P34949); assay: human PMI inhibitors, high substrate, primary screen, biochemical, fluorescence intensity, high mannose 6-phosphate (AID 1220)
# T1 sequence (P34949 whole entry): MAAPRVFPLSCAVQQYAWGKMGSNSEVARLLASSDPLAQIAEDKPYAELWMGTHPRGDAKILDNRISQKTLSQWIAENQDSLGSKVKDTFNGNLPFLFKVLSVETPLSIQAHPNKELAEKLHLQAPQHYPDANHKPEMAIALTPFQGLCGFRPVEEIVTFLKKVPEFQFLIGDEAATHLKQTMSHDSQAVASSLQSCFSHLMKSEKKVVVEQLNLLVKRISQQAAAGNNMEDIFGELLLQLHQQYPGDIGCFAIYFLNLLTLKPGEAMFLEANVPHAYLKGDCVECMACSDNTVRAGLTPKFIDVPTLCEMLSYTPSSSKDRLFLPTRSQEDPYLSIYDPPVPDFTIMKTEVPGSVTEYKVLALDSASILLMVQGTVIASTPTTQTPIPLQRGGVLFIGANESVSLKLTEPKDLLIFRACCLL
# [5] = biological target: Nonstructural protein 1 (Influenza A virus, UniProt Q194T2); format: functional, Influenza A virus (A/California/07/2009(H1N1))
# [6] = system: Vero; assay: Vero cell cytotoxicity, cytotoxicity control for flavivirus capping enzyme inhibitors (AID 588742); format: functional; details: Chlorocebus sabaeus
# [7] = biological target: NS3 (Hepatitis C virus, UniProt A3EZJ3); assay: PubChem AID 2173; parameters: species or system Hepacivirus hominis
# [8] = biological target: Sphingosine 1-phosphate receptor 4 (Homo sapiens, UniProt O95977); assay: Fluorescence dose response cell-based high throughput screening assay for antagonists of the Sphingosine 1-Phosphate Receptor 4 (S1P4). [Related pubchem assays: 1524 (Confirmation in triplicates.), 1510 (Primary screen.)]; format: functional
# [9] = biological target: 14-3-3 protein gamma (Homo sapiens, UniProt P61981); assay: modulators of 14-3-3 gamma client binding – dose response (AID 711); format: functional
# [10] = biological target: Peroxisome proliferator-activated receptor gamma/Nuclear receptor coactivator 2 (Homo sapiens, UniProt P37231); format: functional;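 also: agonist potency for raising coactivator recruitment to the receptor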
# [11] = biological target: Peroxisome proliferator-activated receptor gamma/Nuclear receptor coactivator 1 (Homo sapiens, UniProt P37231); format: functional;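 also: agonist potency as compounds enhance coactivator SRC-1 recruitment to PPARgamma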
# [12] = biological target: Peroxisome proliferator-activated receptor gamma/Nuclear receptor coactivator 3 (Homo sapiens, UniProt P37231); format: functional;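 also: agonist potency for raising coactivator recruitment to the receptor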
# [13] = biological target: T2, Heat shock factor protein 1 (Mus musculus, UniProt P38532); assay: inhibition of MG132-induced HSE-luciferase signal, confirmation, cell-based, NIH3T3, luminescence, dose retest (AID 2382); format: functional;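 also: NIH3T3 fibroblasts with HSF1-driven luciferase reporter stressed by proteasome inhibitor MG132; luminescence from HSF1-driven luciferase expression after 8 hours of MG132 stress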
# T2 sequence (P38532 whole entry): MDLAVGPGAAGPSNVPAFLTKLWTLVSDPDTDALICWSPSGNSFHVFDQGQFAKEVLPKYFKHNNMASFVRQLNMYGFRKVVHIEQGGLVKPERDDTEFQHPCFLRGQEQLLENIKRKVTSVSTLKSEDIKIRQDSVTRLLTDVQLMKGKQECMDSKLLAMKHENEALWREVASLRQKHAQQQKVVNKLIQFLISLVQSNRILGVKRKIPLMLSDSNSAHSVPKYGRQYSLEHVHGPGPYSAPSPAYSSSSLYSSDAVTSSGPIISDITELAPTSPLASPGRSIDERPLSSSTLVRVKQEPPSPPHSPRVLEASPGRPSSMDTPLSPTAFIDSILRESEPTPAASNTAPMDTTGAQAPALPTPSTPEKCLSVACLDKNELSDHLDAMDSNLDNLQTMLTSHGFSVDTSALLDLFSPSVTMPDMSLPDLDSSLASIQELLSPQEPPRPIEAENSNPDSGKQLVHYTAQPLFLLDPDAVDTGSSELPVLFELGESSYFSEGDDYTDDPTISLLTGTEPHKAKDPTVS
# [14] = system: Streptococcus sp. 'group A'; assay: growth inhibition of control SK(-) GAS strain, dose response, counter-screen for streptokinase expression inhibitor project, luminescence, kanamycin, BacTiterGlo, confirmation (AID 1900); format: functional, organism-based
# [15] = biological target: T3, Streptokinase A (Streptococcus pyogenes serotype M1, UniProt P10520); assay: S. pyogenes streptokinase expression inhibitors, potency, dose response, plasminogen activation absorbance, OD405 (AID 1914); format: functional, Streptococcus pyogenes M1 GAS;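 also: secreted streptokinase activity via plasminogen activation per viability signal from cell pellet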
# T3 sequence (P10520 whole entry): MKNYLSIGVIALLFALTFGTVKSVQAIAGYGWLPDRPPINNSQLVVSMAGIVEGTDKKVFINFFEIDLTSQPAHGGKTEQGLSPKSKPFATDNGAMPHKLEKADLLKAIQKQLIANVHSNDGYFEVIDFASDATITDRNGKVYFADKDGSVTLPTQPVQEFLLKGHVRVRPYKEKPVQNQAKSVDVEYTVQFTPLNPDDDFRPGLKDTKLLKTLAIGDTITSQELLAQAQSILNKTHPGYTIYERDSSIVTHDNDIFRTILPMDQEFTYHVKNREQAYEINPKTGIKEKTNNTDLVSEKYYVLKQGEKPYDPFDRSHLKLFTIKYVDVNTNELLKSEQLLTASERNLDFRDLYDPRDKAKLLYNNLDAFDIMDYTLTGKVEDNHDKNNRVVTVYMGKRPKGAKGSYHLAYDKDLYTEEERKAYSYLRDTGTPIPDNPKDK
# [16] = system: Streptococcus; assay: Group A Streptococcus viability loss, dose response, counter-screen for streptokinase expression inhibitor project, luminescence, BacTiterGlo (AID 1915); format: functional, organism-based;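 also: potency for reduction of bacterial viability or growth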
# [17] = biological target: X-box-binding protein 1 (Homo sapiens, UniProt P17861); format: functional, Cricetulus griseus;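 also: confirmatory dose-response counter-screen serving a CHOP assay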
# [18] = biological target: Disintegrin and metalloproteinase domain-containing protein 17 (Homo sapiens, UniProt P78536); assay: ADAM17 protease inhibitors, dose response, counter-screen for ADAM10 exosite inhibitor project, biochemical, quenched FRET substrate (AID 743253)
# [19] = A Cell Based Secondary Assay To Explore Cytotoxicity of Compounds that Sensitize Mycobacterium Tuberculosis to Beta-Lactam Antibiotics.; format: functional
# [20] = growth suppression of PTEN-null colon cells, dose response, cell-based, HCT116 PTEN knockout (AID 1047); format: functional;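 also: HCT116 colon tumor cells with PTEN knocked out; cells exposed to compound for 60 hours before readout; potency for loss of cell viability measured by luminescence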
# [21] = growth suppression of beta-catenin-knockout colon cells, dose response, cell-based, HCT116, human colon tumor (AID 1045); format: functional;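 also: HCT116 colon tumor cells with beta catenin knocked out; cells exposed to compound for 60 hours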
# [22] = Luminescence Cell-Based Dose Retest to Confirm Inhibitors of Cancer Stem Cells. [Related pubchem assays (depositor defined):AID2717, AID2721]; format: functional; details: Homo sapiens
# [23] = biological target: Genome polyprotein (Hepatitis C virus, UniProt Q2Q167); assay: HCV core protein dimerization inhibitors, dose response, biochemical, TR-FRET (AID 2159); parameters: species or system Hepacivirus hominis;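 also: blocks dimerization of HCV core protein measured by TR-FRET between tagged core106 pairs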
# [24] = biological target: Induced myeloid leukemia cell differentiation protein Mcl-1 (Homo sapiens, UniProt Q07820); format: functional
# [25] = biological target: T4, Probable nicotinate-nucleotide adenylyltransferase (Staphylococcus aureus (strain N315), UniProt P65502); format: functional, Staphylococcus aureus subsp. aureus N315;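 as to IC50 Mean: confirmatory dose-response retesting of NadD inhibitor hits first found in an ultra-high-throughput screen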
# [26] = biological target: T4, Probable nicotinate-nucleotide adenylyltransferase; format: functional, Staphylococcus aureus subsp. aureus N315; details: read-out: IC50_Mean
# [27] = biological target: T5, Alkaline phosphatase, tissue-nonspecific isozyme (Homo sapiens, UniProt P05186)
# T5 sequence (P05186 whole entry): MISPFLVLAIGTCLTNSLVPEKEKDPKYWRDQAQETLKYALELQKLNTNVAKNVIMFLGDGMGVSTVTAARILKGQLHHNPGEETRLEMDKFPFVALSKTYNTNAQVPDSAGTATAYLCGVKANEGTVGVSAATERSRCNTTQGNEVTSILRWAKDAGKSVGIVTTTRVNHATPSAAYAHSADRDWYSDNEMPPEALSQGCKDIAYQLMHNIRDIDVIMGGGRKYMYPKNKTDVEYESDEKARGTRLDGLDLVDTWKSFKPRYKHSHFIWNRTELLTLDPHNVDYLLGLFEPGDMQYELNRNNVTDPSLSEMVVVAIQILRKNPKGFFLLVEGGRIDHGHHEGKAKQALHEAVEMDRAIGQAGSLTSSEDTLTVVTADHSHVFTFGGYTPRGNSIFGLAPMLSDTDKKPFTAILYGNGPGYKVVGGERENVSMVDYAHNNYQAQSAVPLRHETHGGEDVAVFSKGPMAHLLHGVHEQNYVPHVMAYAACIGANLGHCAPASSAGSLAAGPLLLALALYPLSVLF
# [28] = cytotoxicity in HEK-293T cells, dose response, cytotoxicity control for BCR NF-kB inhibitor project, luminescence, B-cell screen hits (AID 489021); format: functional, cell-based;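 also: HEK-293T cells carrying an NF-kB luciferase reporter; cells exposed to compound for about 14 hours before viability readout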
# [29] = biological target: Transitional endoplasmic reticulum ATPase (Homo sapiens, UniProt P55072, C522A); assay: C522A mutant p97 ATPase inhibitors, dose response, counter-screen for p97 inhibitor project, biochemical, luminescence (AID 1544)
# [30] = biological target: Transitional endoplasmic reticulum ATPase (Homo sapiens, UniProt P55072); assay: p97 ATPase inhibitors, dose response, biochemical (AID 1534)
# [31] = HEp-2 cell cytotoxicity, dose response, cytotoxicity control for RSV inhibitor project, HTS (AID 2410); format: functional; details: human respiratory syncytial virus
# [32] = biological target: Estrogen receptor beta (Homo sapiens, UniProt Q92731);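 also: recombinant ER-beta bound to coactivator SRC1 peptide in presence of estradiol agonist; inhibitors block coactivator peptide binding and lower the FRET signal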
# [33] = system: H9c2; assay: cells; format: functional, cell-based; details: Rattus norvegicus, H9c2, Myocardium;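 also: confirmatory concentration-response retest of ultra-high-throughput screening hits for modulation of myocardial damage; cell death induced by hydrogen peroxide oxidative stress; compound pretreatment for 60 min then peroxide exposure for 2 h; potency is for protecting the cells against peroxide damage rather than for killing them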
# [34] = Luminescence Cell-Based Dose Confirmation HTS to Identify Inhibitors of Polyadenylation.; format: functional
# 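For AC50 in this document: cells exposed to compound for roughly 70 hours or longer before luminescence read.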
# Chain of Peroxisome proliferator-activated receptor gamma/Nuclear receptor coactivator 3 (P37231 whole entry): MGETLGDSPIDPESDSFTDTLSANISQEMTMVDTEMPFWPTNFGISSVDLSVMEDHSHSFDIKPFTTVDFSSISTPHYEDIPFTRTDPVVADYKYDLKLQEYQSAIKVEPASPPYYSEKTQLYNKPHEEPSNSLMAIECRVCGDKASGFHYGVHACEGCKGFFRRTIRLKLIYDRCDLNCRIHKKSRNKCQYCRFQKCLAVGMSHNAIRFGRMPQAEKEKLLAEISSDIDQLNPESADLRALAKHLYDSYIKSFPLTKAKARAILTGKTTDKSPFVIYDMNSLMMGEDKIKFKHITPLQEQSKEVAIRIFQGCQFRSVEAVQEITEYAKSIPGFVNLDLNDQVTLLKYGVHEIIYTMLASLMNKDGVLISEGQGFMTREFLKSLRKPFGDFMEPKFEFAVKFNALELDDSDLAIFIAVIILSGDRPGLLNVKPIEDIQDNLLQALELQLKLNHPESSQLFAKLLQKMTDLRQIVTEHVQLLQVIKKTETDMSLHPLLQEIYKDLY
# Chain of Peroxisome proliferator-activated receptor gamma/Nuclear receptor coactivator 3 (Q9Y6Q9 whole entry, further chain): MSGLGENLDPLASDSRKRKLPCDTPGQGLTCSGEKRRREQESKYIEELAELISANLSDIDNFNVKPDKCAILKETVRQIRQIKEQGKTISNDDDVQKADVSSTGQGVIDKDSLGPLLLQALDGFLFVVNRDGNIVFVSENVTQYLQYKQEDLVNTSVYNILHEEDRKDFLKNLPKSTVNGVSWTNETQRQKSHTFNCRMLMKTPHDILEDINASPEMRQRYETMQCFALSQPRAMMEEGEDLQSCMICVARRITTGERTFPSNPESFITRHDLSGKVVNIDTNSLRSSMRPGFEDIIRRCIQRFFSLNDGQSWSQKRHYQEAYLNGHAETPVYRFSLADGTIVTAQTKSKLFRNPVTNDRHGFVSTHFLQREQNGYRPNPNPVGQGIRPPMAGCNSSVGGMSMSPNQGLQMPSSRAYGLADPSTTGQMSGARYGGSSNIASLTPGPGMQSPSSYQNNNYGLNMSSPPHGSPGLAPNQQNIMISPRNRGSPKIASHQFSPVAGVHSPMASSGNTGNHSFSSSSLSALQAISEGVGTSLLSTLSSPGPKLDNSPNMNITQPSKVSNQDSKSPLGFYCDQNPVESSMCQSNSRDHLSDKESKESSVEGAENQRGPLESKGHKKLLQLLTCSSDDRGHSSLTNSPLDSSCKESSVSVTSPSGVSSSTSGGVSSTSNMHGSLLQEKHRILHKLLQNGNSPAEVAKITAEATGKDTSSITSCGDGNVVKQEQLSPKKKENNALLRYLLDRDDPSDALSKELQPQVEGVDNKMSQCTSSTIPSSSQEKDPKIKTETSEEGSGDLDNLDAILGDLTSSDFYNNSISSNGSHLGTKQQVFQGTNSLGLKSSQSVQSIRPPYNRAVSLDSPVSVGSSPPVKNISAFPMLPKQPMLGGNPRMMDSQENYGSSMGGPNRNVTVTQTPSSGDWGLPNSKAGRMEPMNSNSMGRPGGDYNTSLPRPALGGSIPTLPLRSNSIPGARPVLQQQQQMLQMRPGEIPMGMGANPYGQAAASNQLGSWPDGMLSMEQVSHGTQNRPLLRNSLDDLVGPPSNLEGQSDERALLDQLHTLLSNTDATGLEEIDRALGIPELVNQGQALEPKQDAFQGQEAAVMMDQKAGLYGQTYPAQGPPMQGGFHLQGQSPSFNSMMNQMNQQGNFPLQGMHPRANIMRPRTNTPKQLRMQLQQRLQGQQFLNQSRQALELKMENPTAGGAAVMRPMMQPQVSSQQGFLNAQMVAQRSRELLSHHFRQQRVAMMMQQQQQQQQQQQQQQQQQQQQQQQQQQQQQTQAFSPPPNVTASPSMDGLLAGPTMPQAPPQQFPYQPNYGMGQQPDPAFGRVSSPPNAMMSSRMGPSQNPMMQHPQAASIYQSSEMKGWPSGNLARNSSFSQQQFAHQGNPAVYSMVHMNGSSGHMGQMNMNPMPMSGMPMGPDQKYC
# Chain of Peroxisome proliferator-activated receptor gamma/Nuclear receptor coactivator 1 (P37231 whole entry): as the sequence (P37231 whole entry) above
# Chain of Peroxisome proliferator-activated receptor gamma/Nuclear receptor coactivator 1 (Q15788 whole entry, further chain): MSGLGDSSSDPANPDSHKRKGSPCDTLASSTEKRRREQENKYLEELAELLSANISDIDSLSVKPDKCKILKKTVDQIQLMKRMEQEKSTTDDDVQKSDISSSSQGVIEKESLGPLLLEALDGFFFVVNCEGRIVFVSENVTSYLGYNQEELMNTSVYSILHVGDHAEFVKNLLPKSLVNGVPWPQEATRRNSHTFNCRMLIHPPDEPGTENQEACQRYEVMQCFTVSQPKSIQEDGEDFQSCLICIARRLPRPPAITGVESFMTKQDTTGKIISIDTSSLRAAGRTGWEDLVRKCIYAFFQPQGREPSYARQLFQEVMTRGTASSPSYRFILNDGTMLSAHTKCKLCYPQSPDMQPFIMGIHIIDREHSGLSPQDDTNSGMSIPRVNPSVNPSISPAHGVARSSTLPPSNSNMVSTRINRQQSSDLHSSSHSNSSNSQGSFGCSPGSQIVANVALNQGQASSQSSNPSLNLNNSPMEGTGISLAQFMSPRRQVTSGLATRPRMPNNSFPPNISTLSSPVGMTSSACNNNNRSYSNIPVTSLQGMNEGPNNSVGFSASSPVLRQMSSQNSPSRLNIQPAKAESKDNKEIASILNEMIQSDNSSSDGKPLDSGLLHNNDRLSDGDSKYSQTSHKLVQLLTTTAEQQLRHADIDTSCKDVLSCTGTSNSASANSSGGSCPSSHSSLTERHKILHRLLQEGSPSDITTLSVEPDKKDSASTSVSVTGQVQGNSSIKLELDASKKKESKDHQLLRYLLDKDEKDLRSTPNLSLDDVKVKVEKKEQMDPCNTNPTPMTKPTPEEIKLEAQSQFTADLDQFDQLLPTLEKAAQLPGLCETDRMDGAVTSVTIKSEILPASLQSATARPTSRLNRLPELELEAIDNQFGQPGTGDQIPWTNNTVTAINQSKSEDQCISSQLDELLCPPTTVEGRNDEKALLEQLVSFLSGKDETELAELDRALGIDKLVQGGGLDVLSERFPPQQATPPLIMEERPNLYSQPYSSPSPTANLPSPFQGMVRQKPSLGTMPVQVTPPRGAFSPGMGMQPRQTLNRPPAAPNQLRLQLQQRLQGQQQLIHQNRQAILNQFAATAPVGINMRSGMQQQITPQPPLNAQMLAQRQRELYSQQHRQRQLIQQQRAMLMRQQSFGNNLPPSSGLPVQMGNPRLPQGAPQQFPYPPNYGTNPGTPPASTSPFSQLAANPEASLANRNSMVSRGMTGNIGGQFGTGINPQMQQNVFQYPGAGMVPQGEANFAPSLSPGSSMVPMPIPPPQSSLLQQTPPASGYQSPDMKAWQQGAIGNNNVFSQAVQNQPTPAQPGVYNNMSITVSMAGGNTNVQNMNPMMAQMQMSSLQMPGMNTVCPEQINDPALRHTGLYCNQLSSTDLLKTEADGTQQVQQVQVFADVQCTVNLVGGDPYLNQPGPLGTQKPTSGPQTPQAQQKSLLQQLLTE
# Chain of NS3 (A3EZJ3 whole entry): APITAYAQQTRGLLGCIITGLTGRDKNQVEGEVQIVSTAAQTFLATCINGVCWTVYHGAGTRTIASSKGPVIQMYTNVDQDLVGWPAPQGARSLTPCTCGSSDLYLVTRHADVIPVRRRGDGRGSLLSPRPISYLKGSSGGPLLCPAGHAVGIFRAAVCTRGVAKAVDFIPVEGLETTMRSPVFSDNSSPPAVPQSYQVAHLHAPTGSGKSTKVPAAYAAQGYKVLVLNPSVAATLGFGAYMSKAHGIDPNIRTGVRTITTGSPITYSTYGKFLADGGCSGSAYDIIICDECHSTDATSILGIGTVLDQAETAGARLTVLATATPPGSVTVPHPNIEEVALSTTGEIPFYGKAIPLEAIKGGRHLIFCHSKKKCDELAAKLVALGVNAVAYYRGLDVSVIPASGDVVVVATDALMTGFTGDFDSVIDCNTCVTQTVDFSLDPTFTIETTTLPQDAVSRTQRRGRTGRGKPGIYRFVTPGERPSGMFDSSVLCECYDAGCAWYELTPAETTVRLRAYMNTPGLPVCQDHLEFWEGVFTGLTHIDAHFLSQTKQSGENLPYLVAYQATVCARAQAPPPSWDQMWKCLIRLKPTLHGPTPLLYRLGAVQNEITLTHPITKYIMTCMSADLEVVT
# Chain of X-box-binding protein 1 (P17861 whole entry, the tested form may be a part): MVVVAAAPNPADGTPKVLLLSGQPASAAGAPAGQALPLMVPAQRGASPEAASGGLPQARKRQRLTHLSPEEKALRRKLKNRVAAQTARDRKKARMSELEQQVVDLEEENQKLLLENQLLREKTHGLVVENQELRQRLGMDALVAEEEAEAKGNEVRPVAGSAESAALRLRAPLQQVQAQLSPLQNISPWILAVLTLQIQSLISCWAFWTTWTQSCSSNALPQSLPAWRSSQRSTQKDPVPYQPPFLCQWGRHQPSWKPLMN
# T4 sequence (P65502 whole entry): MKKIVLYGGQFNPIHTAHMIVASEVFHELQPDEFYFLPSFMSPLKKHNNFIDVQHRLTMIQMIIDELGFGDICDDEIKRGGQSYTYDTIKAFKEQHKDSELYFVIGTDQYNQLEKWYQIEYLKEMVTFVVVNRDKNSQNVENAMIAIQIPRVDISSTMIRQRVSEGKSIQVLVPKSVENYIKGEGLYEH
smiles,measurement,setting,value
O=C(Nc1ccncc1)Nc1cccc(Cl)c1Cl,EC50,[1],< 0.1 µM (active)
same,EC50,[2],> 60 µM (not active)
same,EC50,[3],0.209 µM (active)
C=CCN1C=C/C(=C/c2ccc3cc(C)ccc3[n+]2CC)c2ccccc21,IC50,[4],32.9 µM (active)
same,IC50,[5],7.64 µM (active)
same,CC50,[6],4.96 µM (active)
O=C(CCCSc1ccccc1)Nc1nc(-c2ccco2)c(-c2ccco2)s1,IC50,[7],5.62 µM (active)
CN[C@H]1C[C@H]2O[C@@](C)([C@H]1OC)n1c3ccccc3c3c4c(c5c6ccccc6n2c5c31)C(=O)NC4,IC50,[8],0.183 µM (active)
COC(=O)C1=C(C)N(C)C(C)=C(C(=O)OC)C1c1ccc(C(=O)OC)cc1,IC50,[9],> 50 µM (not active)
Cc1ccc(CN2CCN(Cc3cccc(OCCO)c3)CC2CCO)o1 (centres undefined),EC50,[10],> 79.4 µM (not active)
same,EC50,[11],> 79.4 µM (not active)
same,EC50,[12],> 79.4 µM (not active)
same,EC50,[13],> 195 µM (not active)
COc1ccc(CCN2C(=O)c3[nH]nc(-c4ccccc4O)c3C2c2cccc(Cl)c2)cc1 (centres undefined),EC50,[14],5.5 µM (active)
same,EC50,[15],17.1 µM (active)
same,EC50,[16],17.6 µM (active)
same,Absolute IC50 (XBP1),[17],10 µM
same,IC50,[18],> 69.5 µM (inactive)
CN(Cc1ccccc1)C(=S)NC(=O)c1ccc(-c2ccccc2)cc1,CC50,[19],> 40 µM (active)
Cc1cc(C2(c3ccc(O)c(C)c3)C(=O)Nc3ccccc32)ccc1O,EC50,[20],17.4 µM (active)
same,EC50,[21],17 µM (active)
same,AC50,[22],5.36 µM (active)
same,Absolute IC50 (XBP1),[17],10 µM
C#CCN(C)C(C)Cc1ccccc1 (centres undefined),IC50,[9],> 50 µM (not active)
C=CCn1c(SCC(=O)NCCCC)nc2scc(-c3ccco3)c2c1=O,IC50,[7],37.5 µM (not active)
CN(C)C=O.O=C(Nc1cccc(S(=O)(=O)NC2=NCCCCC2)c1)c1cc(-c2ccco2)nc2ccccc12,IC50,[23],> 49.8 µM (not active)
same,IC50,[24],1.69 µM (active)
same,IC50,[25],6.77 µM (active)
same,IC50,[26],23.1 µM (active)
CC(c1ccccc1)C(Cc1nc2ccccc2[nH]1)c1nc2ccccc2[nH]1 (centres undefined),EC50,[27],61.3 µM (not active)
CCc1ccc(/C=C2\SC(=S)N(CCC(=O)NC3=NCCS3)C2=O)cc1,IC50,[28],> 80 µM (inactive)
O=C(Nc1ccc(F)cc1)C1C(c2ccccc2)C1(Cl)Cl (centres undefined),IC50,[29],> 50 µM (not active)
same,IC50,[30],> 50 µM (not active)
Cc1cc(C)c(NC(=O)Cn2c(=O)n(-c3ccc(CC(=O)NCC4CCCO4)cc3)c(=O)c3ccccc32)c(C)c1 (centres undefined),EC50,[27],> 100 µM (not active)
CC(C)c1nc2sc3c(S)ncnc3c2c2c1CCC2,CC50,[31],14.3 µM (active)
same,IC50,[29],> 50 µM (not active)
same,IC50,[30],42.2 µM (not active)
CCOC(=O)c1s/c(=N\C(=O)c2cc(OC)c(OC)c(OC)c2)n(C)c1C,EC50,[10],30 µM (not active)
same,EC50,[11],42 µM (not active)
same,EC50,[12],49.7 µM (not active)
Cc1cc(N2CCCCCC2)nc(-c2ccccc2O)n1,CC50,[19],> 40 µM (active)
NC(=O)c1cccc2c1C(=O)N(C1CCCCC1)C2,IC50,[32],12.5 µM (active)
same,IC50,[33],> 79 µM (inactive)
CCN(CC)C(=O)Oc1ccc2c(c1)O/C(=C\c1ccco1)C2=O,EC50,[34],> 120 µM (not active)
